Measured values reported in US8114885B2, “Chemical compounds” (GlaxoSmithKline LLC, priority 2000, dated 2012).

What follows are compounds tested on HUVEC (assay: Human Umbilical Vein Endothelial Cell (HUVEC) proliferation assay (BrdU incorporation)). Conditions: VEGF-stimulated HUVEC, 72 hrs, read-out: Inhibition of HUVEC proliferation IC50.
Assay type: cell-based
Description: Human Umbilical Vein Endothelial Cell (HUVEC) Proliferation Assay (BrdU Incorporation) Materials
HUVEC cells and EGM-MV (Endothelial cell growth medium—microvascular) were purchased from Clonetics (San Diego, Calif.). VEGF and bFGF were purchased from R&D Systems (Minneapolis, Minn.). Anti-BrdU antibody was obtained from Chemicon International (Temecula, Calif.).
HUVECs were routinely maintained in EGM-MV medium and were used within passage 7. HUVECs were plated at a density of 2500 cells/well in M199 medium containing 5% FBS (Hyclone) in type I collagen coated plate (Becton Dickinson). The plate was incubated at 37° C. overnight. The medium was removed by aspiration, and test compounds were added to each well in a volume of 0.1 ml/well in serum-free M199 medium. Compound concentrations ranged from 1.5 nM to 30 micromolar. The plate was incubated for 30 min at 37° C. Another 0.1 ml of serum-free M199 medium containing BSA and VEGF (or bFGF) was added to give a final concentration of 0.1% BSA and 10 ng/ml VEGF (0.3 ng/ml bFGF). The plate was incubated at 37° C. for 72 hrs. BrdU was added to each well after the first 48 hrs to give a concentration of 10 micromolar. The calorimetric ELISA assay was performed according to manufacturer's (Roche Molecular Sciences) instructions, with detection by absorbance reading at 450 nm. Results were plotted as concentration of test compound vs. absorbance to give an IC50 value for inhibition of BrdU incorporation.

Cc1n[nH]c2cc(N(C)c3ccnc(Nc4cccc(CNS(C)(=O)=O)c4)n3)ccc12 [Example 59, N-[3-({4-[methyl (3-methyl-1H-indazol-6-yl)amino]-2-pyrimidinyl}amino)benzyl]methanesulfonamide] and Cc1n[nH]c2cc(N(C)c3ccnc(Nc4cccc([S+](C)[O-])c4)n3)ccc12 (stereo not drawn) [Example 66, N^4-methyl-N^4-(3-methyl-1H-indazol-6-yl)-N^2-[3-(methylsulfinyl)phenyl]-2,4-pyrimidinediamine] fall in the same range of IC50: 1 to 200 nM for the first, 1 to 200 nM for the second.

First: Cc1n[nH]c2cc(N(C)c3ccnc(Nc4ccc(Cl)c(S(N)(=O)=O)c4)n3)ccc12 [Example 60, 2-chloro-5-({4-[methyl(3-methyl-1H-indazol-6-yl)amino]-2-pyrimidinyl}amino)benzenesulfonamide]
Second: Cc1n[nH]c2cc(N(C)c3ccnc(Nc4ccc(S(N)(=O)=O)c(Cl)c4)n3)ccc12 [Example 61, 2-chloro-4-({4-[methyl(3-methyl-1H-indazol-6-yl)amino]-2-pyrimidinyl}amino)benzenesulfonamide]
The IC50 of the first is lower: 1 to 200 nM for the first, 201 to 500 nM for the second.

Cc1n[nH]c2cc(N(C)c3ccnc(Nc4cc(S(N)(=O)=O)ccc4Cl)n3)ccc12 [Example 62, 4-chloro-3-({4-[methyl(3-methyl-1H-indazol-6-yl)amino]-2-pyrimidinyl}amino)benzenesulfonamide] and Cc1ccc(S(N)(=O)=O)cc1Nc1nccc(N(C)c2ccc3c(C)n[nH]c3c2)n1 [Example 65, 4-methyl-3-({4-[methyl(3-methyl-1H-indazol-6-yl)amino]-2-pyrimidinyl}amino)benzenesulfonamide] fall in the same range of IC50: 1 to 200 nM for the first, 1 to 200 nM for the second.

First: Cc1cc(S(N)(=O)=O)ccc1Nc1nccc(N(C)c2ccc3c(C)n[nH]c3c2)n1 [Example 63, 3-methyl-4-({4-[methyl(3-methyl-1H-indazol-6-yl)amino]-2-pyrimidinyl}amino)benzenesulfonamide]
Second: Cc1ccc(Nc2nccc(N(C)c3ccc4c(C)n[nH]c4c3)n2)cc1S(N)(=O)=O [Example 64, 2-methyl-5-({4-[methyl(3-methyl-1H-indazol-6-yl)amino]-2-pyrimidinyl}amino)benzenesulfonamide]
The IC50 of the first is higher: 201 to 500 nM for the first, 1 to 200 nM for the second.

First: Cc1n[nH]c2cc(N(C)c3ccnc(Nc4cc(S(C)(=O)=O)ccc4F)n3)ccc12 [Example 67, N^2-[2-fluoro-5-(methylsulfonyl)phenyl]-N^4-methyl-N^4-(3-methyl-1H-indazol-6-yl)-2,4-pyrimidinediamine]
Second: COc1ccc(S(C)(=O)=O)cc1Nc1nccc(N(C)c2ccc3c(C)n[nH]c3c2)n1 [Example 68, N^2-[2-methoxy-5-(methylsulfonyl)phenyl]-N^4-methyl-N^4-(3-methyl-1H-indazol-6-yl)-2,4-pyrimidinediamine]
The IC50 of the first is higher: 201 to 500 nM for the first, 1 to 200 nM for the second. The second is the more potent here.

First: Cc1ccc(Nc2nccc(N(C)c3ccc4c(C)n(C)nc4c3)n2)cc1S(N)(=O)=O [Example 69, 5-({4-[(2,3-dimethyl-2H-indazol-6-yl)(methyl)amino]pyrimidin-2-yl}amino)-2-methylbenzenesulfonamide]
Second: Cc1ccc(Nc2ncnc(N(C)c3ccc4c(C)n(C)nc4c3)n2)cc1S(N)(=O)=O [Example 79, 5-({4-[(2,3-dimethyl-2H-indazol-6-yl)(methyl)amino]-1,3,5-triazin-2-yl}amino)-2-methylbenzenesulfonamide]
The IC50 of the first is lower: 1 to 200 nM for the first, 201 to 500 nM for the second.

Cc1c2ccc(N(C)c3ccnc(Nc4cccc(S(N)(=O)=O)c4)n3)cc2nn1C [Example 70, 3-({4-[(2,3-dimethyl-2H-indazol-6-yl)(methyl)amino]pyrimidin-2-yl}amino)benzenesulfonamide] and CCn1nc2cc(N(C)c3ccnc(Nc4cccc(S(N)(=O)=O)c4)n3)ccc2c1C [Example 76, 3-({4-[(2-ethyl-3-methyl-2H-indazol-6-yl)(methyl)amino]pyrimidin-2-yl}amino)benzenesulfonamide] fall in the same range of IC50: 1 to 200 nM for the first, 1 to 200 nM for the second.

Cc1c2ccc(N(C)c3ccnc(Nc4ccc(CCS(N)(=O)=O)cc4)n3)cc2nn1C [Example 71, 2-[4-({4-[(2,3-dimethyl-2H-indazol-6-yl)(methyl)amino]pyrimidin-2-yl}amino)phenyl]ethanesulfonamide] and Cc1c2ccc(N(C)c3ccnc(Nc4ccc(CS(C)(=O)=O)cc4)n3)cc2nn1C [Example 72, N^4-(2,3-dimethyl-2H-indazol-6-yl)-N^4-methyl-N^2-{4-[(methylsulfonyl)methyl]phenyl}pyrimidine-2,4-diamine] fall in the same range of IC50: 1 to 200 nM for the first, 1 to 200 nM for the second.

CN(c1ccc2c(CO)n(C)nc2c1)c1ccnc(Nc2cccc(S(N)(=O)=O)c2)n1 [Example 73, 3-({4-[[3-(hydroxymethyl)-2-methyl-2H-indazol-6-yl](methyl)amino]pyrimidin-2-yl}amino)benzenesulfonamide] and Cc1nc2cc(N(C)c3ccnc(Nc4cccc(S(N)(=O)=O)c4)n3)ccc2n1C [Example 74, 3-({4-[(1,2-dimethyl-1H-benzimidazol-5-yl)(methyl)amino]pyrimidin-2-yl}amino)benzenesulfonamide] fall in the same range of IC50: 1 to 200 nM for the first, 1 to 200 nM for the second.

CN(c1ccc2c(c1)nc(Cc1ccccc1)n2C)c1ccnc(Nc2cccc(S(N)(=O)=O)c2)n1 [Example 75, 3-({4-[(2-benzyl-1-methyl-1H-benzimidazol-5-yl)(methyl)amino]pyrimidin-2-yl}amino)benzenesulfonamide] and Cc1c2ccc(N(C)c3ccnc(Nc4cccc(S(N)(=O)=O)c4)n3)cc2nn1Cc1cccc(Cl)c1 [Example 77, 3-({4-[[2-(3-chlorobenzyl)-3-methyl-2H-indazol-6-yl](methyl)amino]pyrimidin-2-yl}amino)benzenesulfonamide] fall in the same range of IC50: 1 to 200 nM for the first, 1 to 200 nM for the second.

With Cc1c2ccc(N(C)c3ncnc(Nc4cccc(S(N)(=O)=O)c4)n3)cc2nn1C [Example 78, 3-({4-[(2,3-dimethyl-2H-indazol-6-yl)(methyl)amino]-1,3,5-triazin-2-yl}amino)benzenesulfonamide] the IC50 was 1 to 200 nM.
